According to PubChem BioAssay (NCI):
“And” between values parts separate entries of the source, which are not always exact repeats. Equal values may be shown once.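 Exposure lasted 48 hours, with cells grown in 96-well plates and compounds tested at five concentrations. Here, GI50 denotes the concentration required for 50% inhibition of growth. Definition used: TGI = concentration required for complete inhibition of growth.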

Legend:
Test in all cases: NCI tumour cell line growth inhibition, 48 h
[1] = system: NCI-H522 lung
[2] = system: IGROV1 ovarian
[3] = system: K-562 leukemia
[4] = system: HCT-15 colon
[5] = system: SK-OV-3 ovarian
[6] = system: U251 CNS
[7] = system: SF-268 CNS
[8] = system: HCT-116 colon
[9] = system: LXFL 529 NSCLC
[10] = system: SF-539 CNS
[11] = system: SR leukemia
[12] = system: HT29 colon
[13] = system: NCI-H226 lung
[14] = system: COLO 205 colon
[15] = system: NCI-H460 lung
[16] = system: HCC-2998 colon
[17] = system: M14 melanoma
[18] = system: MOLT-4 leukemia
[19] = system: SK-MEL-28 melanoma
[20] = system: SK-MEL-5 melanoma
[21] = system: MALME-3M melanoma
[22] = system: OVCAR-3 ovarian
[23] = system: NCI-H23 lung
[24] = system: HOP-62 NSCLC
[25] = system: ACHN renal
[26] = system: SNB-19 CNS
[27] = system: KM12 colon
[28] = system: EKVX NSCLC
[29] = system: OVCAR-8 ovarian
[30] = system: SF-295 CNS
[31] = system: SW-620 colon
[32] = system: CCRF-CEM leukemia
[33] = system: DMS 273 small cell lung
[34] = system: XF 498 CNS
[35] = system: LOX IMVI melanoma
[36] = system: RPMI-8226 leukemia
[37] = system: 786-0 renal
[38] = system: DMS 114 small cell lung
[39] = system: A549 NSCLC
[40] = system: SN12C renal
[41] = system: HL-60(TB) leukemia
[42] = system: UACC-257 melanoma
[43] = system: KM20L2 colon
[44] = system: UO-31 renal
[45] = system: TK-10 renal
[46] = system: CAKI-1 renal
[47] = system: RXF-631 renal
[48] = system: DLD-1 colon
[49] = system: M19-MEL melanoma
[50] = system: SNB-75 CNS
[51] = system: RXF 393 renal
[52] = system: SNB-78 CNS
[53] = system: SK-MEL-2 melanoma
[54] = system: UACC-62 melanoma
[55] = system: A498 renal
[56] = system: P388/ADR leukemia
[57] = system: SN12K1 renal
[58] = system: HOP-18 NSCLC
[59] = system: BT-549 breast
[60] = system: P388 leukemia
[61] = system: HOP-92 NSCLC
[62] = system: OVCAR-5 ovarian
[63] = system: OVCAR-4 ovarian

ClC1=C(Cl)C(Cl)(Cl)c2c3c(c4c(c21)C(Cl)(Cl)C(Cl)=C4Cl)C(Cl)(Cl)C(Cl)=C3Cl
TGI [1]: > 100 µM | TGI [2]: > 100 µM | TGI [3]: > 100 µM | TGI [4]: > 100 µM | TGI [5]: > 100 µM | TGI [6]: > 100 µM | TGI [7]: > 100 µM | TGI [8]: > 100 µM | TGI [9]: > 100 µM | TGI [10]: > 100 µM | TGI [11]: > 100 µM | TGI [12]: > 100 µM | TGI [13]: > 100 µM | TGI [14]: > 100 µM | TGI [15]: > 100 µM | TGI [16]: > 100 µM | TGI [17]: > 100 µM | TGI [18]: > 100 µM | TGI [19]: > 100 µM | TGI [20]: > 100 µM | TGI [21]: > 100 µM | TGI [22]: > 100 µM | TGI [23]: > 100 µM | TGI [24]: > 100 µM | TGI [25]: > 100 µM | TGI [26]: > 100 µM | TGI [27]: > 100 µM | TGI [28]: > 100 µM | TGI [29]: > 100 µM | TGI [30]: > 100 µM | TGI [31]: > 100 µM | TGI [32]: > 100 µM | TGI [33]: > 100 µM | TGI [34]: > 100 µM | TGI [35]: > 100 µM | TGI [36]: > 100 µM | TGI [37]: > 100 µM | TGI [38]: > 100 µM | TGI [39]: > 100 µM | TGI [40]: > 100 µM | TGI [41]: > 100 µM | TGI [42]: > 100 µM | TGI [43]: > 100 µM

O=C1OC(=O)c2c1c(-c1ccccc1)nc1ccccc21
TGI [1]: > 100 µM | TGI [44]: > 100 µM | TGI [2]: > 100 µM | TGI [45]: > 100 µM | TGI [3]: > 100 µM | TGI [4]: > 100 µM | TGI [46]: > 100 µM | TGI [5]: > 100 µM | TGI [47]: > 100 µM | TGI [6]: > 100 µM | TGI [7]: > 100 µM | TGI [8]: > 100 µM | TGI [9]: > 100 µM | TGI [10]: > 100 µM | TGI [12]: > 100 µM | TGI [13]: > 100 µM | TGI [14]: > 100 µM | TGI [48]: > 100 µM | TGI [15]: > 100 µM | TGI [16]: > 100 µM | TGI [17]: > 100 µM | TGI [18]: > 100 µM | TGI [19]: > 100 µM | TGI [20]: > 100 µM | TGI [21]: > 100 µM | TGI [22]: > 100 µM | TGI [23]: > 100 µM | TGI [24]: > 100 µM | TGI [26]: > 100 µM | TGI [27]: > 100 µM | TGI [28]: > 100 µM | TGI [29]: > 100 µM | TGI [30]: > 100 µM | TGI [49]: > 100 µM | TGI [31]: > 100 µM | TGI [50]: > 100 µM | TGI [32]: > 100 µM | TGI [33]: > 100 µM | TGI [34]: > 100 µM | TGI [51]: > 100 µM | TGI [52]: > 100 µM | TGI [53]: > 100 µM | TGI [35]: > 100 µM | TGI [36]: > 100 µM | TGI [37]: > 100 µM | TGI [38]: > 100 µM | TGI [54]: > 100 µM | TGI [39]: > 100 µM | TGI [55]: > 100 µM | TGI [40]: > 100 µM | TGI [41]: > 100 µM | TGI [42]: > 100 µM | TGI [43]: > 100 µM

COc1ccc(CC2C(=O)NC(C)C(=O)N(C)C3C(=O)N(C)C(Cc4ccc(O)c(c4)Oc4ccc(cc4)C3O)C(=O)NC(C)C(=O)NC(C)C(=O)N2C)cc1 (centres undefined)
TGI [56]: 8.52 µM and 12.7 µM | GI50 [57]: 0.0135 µM | TGI [57]: 0.0321 µM and 0.0342 µM | GI50 [13]: 0.0125 µM | TGI [13]: 0.0238 µM and 0.0257 µM | GI50 [48]: 0.0409 µM | TGI [48]: 3.45 µM and 0.581 µM | GI50 [58]: 0.0184 µM | TGI [58]: 0.0435 µM and 0.0401 µM | GI50 [23]: 0.00711 µM | TGI [23]: 0.0557 µM and 0.0341 µM | GI50 [49]: 0.00708 µM | TGI [49]: 0.13 µM and 0.0543 µM | GI50 [33]: 0.0215 µM | TGI [33]: 0.117 µM and 0.0522 µM | GI50 [34]: 0.00238 µM | TGI [34]: 0.0179 µM and 0.0313 µM | TGI [59]: 0.01 µM | GI50 [52]: 0.0125 µM | TGI [52]: 0.0411 µM and 0.0264 µM | GI50 [60]: 0.0149 µM | TGI [60]: 0.0792 µM and 0.175 µM | GI50 [38]: 0.0128 µM | TGI [38]: 0.0206 µM and 0.0428 µM | GI50 [61]: 0.00303 µM | TGI [61]: 0.0283 µM and 0.0918 µM and 0.0269 µM | GI50 [42]: 0.016 µM | TGI [42]: 0.0663 µM and 0.032 µM | TGI [43]: 0.35 µM and 0.471 µM

COc1ccc(-c2cc(=O)c3c(O)cccc3o2)c(OC)c1OC
TGI [1]: > 100 µM | TGI [2]: > 100 µM | TGI [45]: > 100 µM | TGI [3]: > 100 µM | TGI [4]: > 100 µM | TGI [46]: > 100 µM | TGI [5]: > 100 µM | TGI [47]: > 100 µM | TGI [6]: > 100 µM | TGI [7]: > 100 µM | TGI [62]: > 100 µM | TGI [8]: > 100 µM | TGI [9]: > 100 µM | TGI [10]: 86.9 µM | TGI [12]: > 100 µM | TGI [13]: > 100 µM | TGI [14]: > 100 µM | TGI [48]: > 100 µM | TGI [15]: > 100 µM | TGI [16]: > 100 µM | TGI [17]: > 100 µM | TGI [18]: > 100 µM | TGI [19]: > 100 µM | TGI [20]: > 100 µM | TGI [21]: > 100 µM | TGI [22]: > 100 µM | TGI [23]: > 100 µM | TGI [24]: > 100 µM | TGI [25]: > 100 µM | TGI [27]: > 100 µM | TGI [29]: > 100 µM | TGI [30]: > 100 µM | TGI [49]: > 100 µM | TGI [31]: > 100 µM | TGI [50]: 75.5 µM | TGI [32]: > 100 µM | TGI [33]: > 100 µM | TGI [34]: > 100 µM | TGI [51]: > 100 µM | TGI [52]: > 100 µM | TGI [53]: > 100 µM | TGI [35]: > 100 µM | TGI [36]: > 100 µM | TGI [37]: > 100 µM | TGI [38]: > 100 µM | TGI [54]: > 100 µM | TGI [39]: > 100 µM | TGI [63]: > 100 µM | TGI [55]: 82.9 µM | TGI [40]: > 100 µM | TGI [61]: > 100 µM | TGI [41]: > 100 µM | TGI [42]: > 100 µM | TGI [43]: > 100 µM
